# Reference: a melting point compilation (Tetko et al.; mined from patent text by program, amines drawn as free bases though some values may be those of a salt)
row,SMILES,melting point
1,c1ccc(-c2ccc(-c3csc(Nc4cc5ccccc5cn4)n3)s2)nc1,246 to 248 °C
2,CCOC(=O)Cn1c(-c2ccc(OC)cc2)nc2cccnc21,107 to 108 °C
3,CC1(C)OC(=O)c2c(cccc2-c2ccccn2)O1,142 °C
4,CCn1nc2c(N)nc3c(c2c1CC1(O)CCCCC1)CCCC3,232 to 234 °C
5,C=CCOc1cccc(C(=O)c2ccccc2C(=O)O)c1,109 °C
6,CC(C)c1n[nH]c2c(NCc3ccccc3)nc(NCCN)nc12,145 to 147 °C
7,CC(C)(C)c1ccc(C#N)cc1NC(=O)Nc1cccnc1,194 to 196 °C
8,CNC(=O)c1ccccc1Nc1nc(Nc2ccc3c(c2)CCN(C(=O)C(F)(F)F)CC3)ncc1Cl,192 to 194 °C
9,COc1ccc(C2=NN(C)C(=O)CC2)cc1,133 to 135 °C
10,CC1C(=O)N(c2ccccc2OCCCCBr)Sc2ccccc21 (configuration not stated),93 °C
11,NC1=NC(c2cccc(-c3cccnc3F)c2)(c2ccc3c(c2)OCO3)C2=NCCCN12 (configuration not stated),106 to 119 °C
12,O=C1CCCCCC1=CC(=O)c1ccccc1,91 to 92 °C
13,COc1ccc(S(=O)(=O)N(C)C)cc1-c1ccc(CN2CCCCC2)[nH]1,78 to 79 °C
14,CCCC/C=C\CCCCCCCC(=O)Nc1nc(CC(=O)O)cs1,110 to 111 °C
15,COc1ccc(CC(=O)C=NN=P(c2ccccc2)(c2ccccc2)c2ccccc2)cc1,111 to 112 °C
16,CCCCCCOC(=O)CCCC(C)(C)c1cc(O)c(C(C)(C)CCCC(=O)OCCCCCC)cc1O,77 to 78 °C
17,Cc1ccc(-n2c(-c3ccc(S(C)(=O)=O)cc3)nc(O)c(C#N)c2=O)cc1C,> 285 °C
18,FC(F)c1nc2ccccc2n1-c1nc(Oc2cccnc2)nc(N2CCOCC2)n1,229 to 231 °C
19,O=C(NO)c1ccc(CNC(=O)c2[nH]c(-c3ccccc3)cc2-c2ccc([N+](=O)[O-])cc2)cc1,179 to 180 °C

row,SMILES,melting point
1,COc1nc2cc(Cl)c(Cl)c(N(CC(C)O)S(C)(=O)=O)c2nc1OC (racemic),176 to 177 °C
2,NC(=O)c1nc(-c2ccccc2)n2c1CN=C(c1ccccc1F)c1cc(Cl)ccc1-2,260 to 262 °C
3,COCc1nc(C)c2c(n1)N(Cc1ccc(Br)cc1)C(=O)CC2,64 to 66 °C
4,CCCc1c2nc(C(=O)OC)cc(C(F)(F)C(F)(F)C(F)(F)F)c2cc2c(=O)cc(C(=O)OCC)oc12,144 to 146 °C
5,C[Si](C)(C)C#Cc1ccc2c(c1)C1(c3ccccc3-c3ccccc31)c1cc(C#C[Si](C)(C)C)ccc1-2,267 to 269 °C
6,COc1cc2oc(=O)c(CCO)c(C)c2cc1OC(C)C,110 to 112 °C
7,CC(=O)O[C@@H]1[C@H](OC(C)=O)[C@@H](C)O[C@H]1n1c(Br)nc2c(Cl)c(Cl)c(Cl)cc21,160 to 162 °C
8,CCCc1nc2c(N)nc3cc(-c4ccc(NC(C)=O)cc4)ccc3c2s1,252 to 255 °C
9,N#Cc1ccc(-c2ccc(C=Cc3ccccc3)o2)nc1,154 to 155 °C
10,CC(C)n1nc(-c2sc(C(=O)NCCc3ccccn3)nc2-c2ccc(F)cc2)ccc1=O,144 to 145 °C
11,O=C(O)c1ccccc1S(=O)(=O)Cc1c(O[C@H](Cn2ccnc2)c2ccccc2)ccc2c1CCCC2=O,230 °C
12,COc1ccc(C2CC(=O)N(Cc3ccc4cc(F)ccc4n3)C2)cc1OC1CCCC1 (configuration not stated),65 to 68 °C
13,CC12CCC(=O)C(N=[N+]=[N-])=C1CCC1C2CCC2(C)C(OC3CC3)CCC12 (configuration not stated),104 to 106 °C
14,CCOC(=O)CCc1cccc(OCc2ccc(OCc3nc(-c4ccccc4)oc3C)cc2)c1,90 to 91 °C
15,CCCCc1cn(-c2ccccc2C(C)C)c(=O)n1Cc1ccc(-c2ccccc2-c2nnn[nH]2)cc1,167 to 168 °C
16,COc1ccc(S(=O)(=O)Nc2ccc(C)cc2)c2c1[nH]c1ccccc12,199 to 203 °C
17,Cn1cc(C2CCC(=O)CC2)c2cc(C#N)ccc21,150 to 152 °C
18,C=CCN(C(C)=O)c1cccc(-c2ccnc3c(C#N)cnn23)c1,135 to 137 °C
